In assay [1] the test system is Coxsackievirus B3. The assay is described as follows: Tested for its anti-polio activity against Coxsackie B virus type-3. Format: functional, organism-based. The following applies: Enterovirus B.
The subject of assay [2] is Coxsackievirus B3. Nature of the assay: Selectivity index as the ratio of CC50/EC50 against Coxsackie B virus type-3. Format: functional.
For assay [3], the system named is Vesicular stomatitis virus. Nature of the assay: Selectivity index as the ratio of CC50/EC50 against Vesicular stomatitis virus. Format: functional.
For assay [4], the system named is Vesicular stomatitis virus. Nature of the assay: Tested for its anti-polio activity against Vesicular stomatitis virus. Format: functional, organism-based.

In brackets after ≈: the same amount, converted by molar mass.

In the case of `NC(=O)c1ncn([C@@H]2O[C@H](CO)[C@@H](O)[C@H]2O)n1` [RIBAVIRIN], the EC50 (usually the concentration needed to bring the measured effect to its halfway point) came out at 92.5 µg/mL (≈ 379 µM) in the assay on Coxsackievirus B3 [1] and 15.6 µg/mL (≈ 64 µM) in assay [4]. Also, the Selectivity index with Coxsackievirus B3 [2] turned out to be 5.58; in assay [3] it was 27.26.

Consider `CC(C)[C@H](NC(=O)OC(C)(C)C)c1cc(Cn2ccc(=O)n(C(=O)c3ccccc3)c2=O)on1`, for which the figures for the EC50 (in the assay on Coxsackievirus B3 [1]; in assay [4]) were 98.1 µg/mL (≈ 209 µM) and 80 µg/mL (≈ 171 µM), respectively. Moreover, the results for the Selectivity index (in the assay on Coxsackievirus B3 [2]; in assay [3]) were 1.02 and 1.25, respectively.

Consider `Cc1cn(Cc2cc([C@H](Cc3ccccc3)NC(=O)OC(C)(C)C)no2)c(=O)n(C(=O)c2ccccc2)c1=O`, for which the EC50 stood at 10.6 µg/mL (≈ 20 µM) with Coxsackievirus B3 [1] and 7.94 µg/mL (≈ 15 µM) in assay [4]. The results for the Selectivity index (in the assay with Coxsackievirus B3 [2]; in assay [3]) were 2.46 and 3.29, respectively.

These data come from ChEMBL document CHEMBL1135116, “Heterocyclic nucleoside analogues: design and synthesis of antiviral, modified nucleosides containing isoxazole heterocycles” (Bioorg Med Chem Lett, 2002).
